From patent publication US20130078317A1, “ZINC-CONTAINING COMPOSITIONS FOR THE TREATMENT OF DISEASES, ILLNESSES AND SYNDROMES ASSOCIATED WITH EXPOSURE TO PORE FORMING TOXINS” (priority 2009, published 2013)
“And” between values parts separate entries of the source, which are not always exact repeats. Identical values can stand only once. “Also recorded” adds a separate entry of the source.

Columns and labels:
hemolytic toxins = settings: 10 mM D-lactulose; cited from earlier work
[1] = test system: Carybdea alata venom in isolated red blood cells (2% RBC); type: cell-based, human
[2] = test system: Chironex fleckeri venom in isolated red blood cells (2% RBC); type: cell-based, human
[3] = test system: Chironex fleckeri venom in whole blood; type: cell-based, human
[4] = test system: Carybdea alata venom in isolated red blood cells (2% RBC); assay: Hemolysis induced by Carybdea alata venom in 2% RBC; type: cell-based, human
[5] = test system: Chironex fleckeri venom in whole blood; assay: Hemolysis induced by Chironex fleckeri venom in whole blood; type: cell-based, human; settings: 5 mM zinc gluconate, compared to untreated cells, FIG. 6
[6] = test system: Chironex fleckeri venom in whole blood; assay: Cytokine production in whole blood exposed to Chironex fleckeri venom; type: cell-based, human; settings: CF venom, 5 mM zinc gluconate, FIG. 7
[7] = test system: Chironex fleckeri venom in whole blood; assay: Catecholamine and histamine response in whole blood exposed to Chironex fleckeri venom; type: cell-based, human; settings: CF venom, 5 mM zinc gluconate, FIG. 8
Chironex fleckeri venom = assay: Mouse envenomation model with echocardiography/electrocardiography, survival, plasma hemoglobin and potassium (Example 6); type: in vivo
cubozoan porin [8] = settings: pig, in vivo
cubozoan porin [9] = assay: Human subjects envenomated by a cubozoan porin, intravenous zinc gluconate (Example 8); type: in vivo; settings: IV infusion 2.5 to 4 mg per day
cubozoan porin [10] = assay: Human subjects envenomated by a cubozoan porin, subcutaneous bolus then continuous IV (Example 9); type: in vivo; settings: subcutaneous bolus 5 mL of 100 mM, then IV 5 mM
cubozoan porin [11] = assay: Human subjects envenomated by a cubozoan porin, transdermal patch (Example 10); type: in vivo; settings: iontophoresis, 5 mM at 40 mAmp/min
bacterial porin = assay: Human subjects exposed to a bacterial porin, intravenous (Example 11); type: in vivo; settings: IV 2.5 to 4 mg per day
Protocol: In this Example, human subjects are treated with zinc gluconate intravenously after being exposed to a bacterial porin. […] Samples are removed to monitor levels of potassium, cytokines, histamine, and catecholamine, in the blood serum.

viral porin = assay: Human subjects exposed to a viral porin, intravenous (Example 12); type: in vivo; settings: IV 2.5 to 4 mg per day
Protocol: In this Example, human subjects are treated with zinc gluconate intravenously after being exposed to a viral porin. […] Samples are removed to monitor levels of potassium, cytokines, histamine, and catecholamine, in the blood serum.

[12] = test system: mushroom pore-forming toxin; assay: Human subjects exposed to a mushroom pore-forming toxin, intravenous (Example 13); type: in vivo; settings: IV 2.5 to 4 mg per day
Protocol: In this Example, human subjects are treated with zinc gluconate intravenously after being exposed to a mushroom pore-forming toxin. […] Samples are removed to monitor levels of potassium, cytokines, histamine, and catecholamine, in the blood serum.

[13] = mice, Zn Gluc then 2000 U venom IV, cardiac blood at death

## OC[C@H]1O[C@@H](O[C@@H]2[C@@H](CO)O[C@](O)(CO)[C@H]2O)[C@H](O)[C@@H](O)[C@H]1O [D-lactulose]
Hemolytic toxins
  Hemolysis: dramatic absence of hemolysis

## zinc gluconate
[1]
  potassium efflux induced by Carybdea alata venom: fully inhibited
[2]
  potassium efflux induced by Chironex fleckeri venom: fully inhibited
[3]
  potassium efflux induced by Chironex fleckeri venom: inhibited
[4]; 2% RBC, 5 mM zinc gluconate
  hemolysis induced by Carybdea alata venom: substantially inhibited
[4]; venom dose 6.4 U/ml
  decrease of the total hemolytic capacity of the venom dose: more than 10 fold
[5]
  hemolysis induced by Chironex fleckeri venom: substantially less severe hemolysis
[6]
  production of EGF: reduced
  production of G-CSF: reduced
  production of GRO: reduced
  production of IFNα2: reduced
  production of PDGF-AA: reduced
  production of TNFα: reduced
[7]
  catecholamine response: reduced
  histamine response: reduced
Chironex fleckeri venom; Mouse 2010-6-09-2, FIG. 10
  EKG recovery: recovered within thirty seconds
  time of cessation of ventricular contraction: 10.5 min
  time of recovery of ventricular contraction: 11 min
Chironex fleckeri venom; mice pre-injected with zinc gluconate, in three mice
  rebounds of ventricular contraction subsequent to periods of pulseless electrical activity (PEA): frequently observed
Chironex fleckeri venom; [13]
  Hemolysis: 6% and 4% and 2% and 3%
  Plasma Hgb: 860 mg/100 mL and 673 mg/100 mL and 471 mg/100 mL
Chironex fleckeri venom; relative to the untreated mice, FIG. 11
  survival rates: higher survival rates
Chironex fleckeri venom; relative to the untreated mice, intravenous, FIG. 11, P<0.0001
  duration of survival post-envenomation (survival times): longer durations of survival; also recorded: significantly prolonged
Chironex fleckeri venom; zinc treated animals exposed to cubozoan PFT
  normal EKG conductive sequences maintained: for longer periods
Cubozoan porin [8]
  severity of symptoms: reduce the severity of symptoms
  survival: siginificantly improve survival
Cubozoan porin [9]
  likelihood of a lethal outcome: decrease the likelihood a lethal outcome
  severity of physiological symptoms associated with the venom poisoning: reduce the severity of physiological symptoms
Cubozoan porin [10]
  likelihood of a lethal outcome: decrease the likelihood a lethal outcome
  severity of physiological symptoms associated with the venom poisoning: reduce the severity of physiological symptoms
Cubozoan porin [11]
  likelihood of a lethal outcome: decrease the likelihood a lethal outcome
  severity of physiological symptoms associated with the venom poisoning: reduce the severity of physiological symptoms
Bacterial porin
  health of the subject: improve the health of the subject
  severity of physiological symptoms associated with porin exposure: reduce the severity of physiological symptoms
Viral porin
  health of the subject: improve the health of the subject
  severity of physiological symptoms associated with porin exposure: reduce the severity of physiological symptoms
[12]
  health of the subject: improve the health of the subject
  severity of physiological symptoms associated with porin exposure: reduce the severity of physiological symptoms
